According to patent US12403128B2, “Compositions and methods for blocking sodium channels” (University of Virginia Patent Foundation, priority 2017, dated 2025):
Read-outs that look alike come from different tables or passages of the source.

Columns and labels:
in vivo = details: mouse, ip
[1] = tested on: maximal electroshock (MES) seizures; assay: MES (maximal electroshock) test, rats; format: in vivo; details: for MES N/F (animals active over number tested): 30 mg/kg
From the text: Evaluation of Compounds in MES Models of Seizures. The MES is a model for generalized tonic-clonic seizures and provides an indication of a compound's ability to prevent seizure spread when all neuronal circuits in the brain are maximally active. These seizures are highly reproducible and are electrophysiologically consistent with human seizures. […] Abolition of the hindleg tonic extensor component of the seizure was used as the endpoint.

[2] = tested on: maximal electroshock (MES) seizures; assay: MES (maximal electroshock) test, mice; format: in vivo; details: for MES N/F (animals active over number tested): 100 mg/kg
From the text: Evaluation of Compounds in MES Models of Seizures. […] These seizures are highly reproducible and are electrophysiologically consistent with human seizures. […] Abolition of the hindleg tonic extensor component of the seizure was used as the endpoint.

rats = assay: Behavioral toxicity (TOX, TD50), rats; format: in vivo; details: IP, 30 mg/kg
[3] = Behavioral toxicity (TOX, TD50), rats; format: in vivo; details: rat, in vivo, IP, Table 15, read-out: TOX TD50
mice = details: mouse, in vivo, ip, 100 mg/kg
[4] = tested on: 6 Hz psychomotor seizures; assay: 6 Hz psychomotor seizure test, mice; format: in vivo; details: for 6 Hz N/F (animals active over number tested): 100 mg/kg; for ED50: Mus musculus
Procedure: Evaluation of Compounds in 6 Hz Pyschomotor Seizure Test
Compounds were tested using a 6 Hz psychomotor seizure test. […] For example, both the MES and scM models are insensitive to levetiracetam, a compound considered potentially useful in the management of refractory seizures. […] Thus, the 6 Hz test can serve as a therapy resistant screening paradigm of acute seizure activity.

[5] = tested on: corneal kindled mice seizures; assay: Corneal kindled mice model; format: in vivo; details: for Avg. Score / N/F (animals active over number tested): TPE 0.5 hours
Procedure: Evaluation of Compounds in Corneal Kindled Mice Model.
Corneal kindled mice are kindled electrically via 3 second stimulation at 8 mA, 60 Hz through corneal electrodes to produce 10 consecutive stage […] seizures according to the Racine scale. Animals are defined as kindled once they progress to a reproducible stage 5 seizure. 72 hours after the mice have been kindled the test substance is administered and, according to a previously determined TPE (time to peak), the animals are electrically stimulated. The animals are considered protected when displaying a stage 3, or lower, seizure.

NaV1.6 sodium channels = NaV1.6 sodium channels (Homo sapiens, UniProt Q9UQD0); assay: State-dependent inhibition: steady state inactivation, use-dependent block; format: cell-based
Chain of NaV1.6 sodium channels (Q9UQD0 whole entry): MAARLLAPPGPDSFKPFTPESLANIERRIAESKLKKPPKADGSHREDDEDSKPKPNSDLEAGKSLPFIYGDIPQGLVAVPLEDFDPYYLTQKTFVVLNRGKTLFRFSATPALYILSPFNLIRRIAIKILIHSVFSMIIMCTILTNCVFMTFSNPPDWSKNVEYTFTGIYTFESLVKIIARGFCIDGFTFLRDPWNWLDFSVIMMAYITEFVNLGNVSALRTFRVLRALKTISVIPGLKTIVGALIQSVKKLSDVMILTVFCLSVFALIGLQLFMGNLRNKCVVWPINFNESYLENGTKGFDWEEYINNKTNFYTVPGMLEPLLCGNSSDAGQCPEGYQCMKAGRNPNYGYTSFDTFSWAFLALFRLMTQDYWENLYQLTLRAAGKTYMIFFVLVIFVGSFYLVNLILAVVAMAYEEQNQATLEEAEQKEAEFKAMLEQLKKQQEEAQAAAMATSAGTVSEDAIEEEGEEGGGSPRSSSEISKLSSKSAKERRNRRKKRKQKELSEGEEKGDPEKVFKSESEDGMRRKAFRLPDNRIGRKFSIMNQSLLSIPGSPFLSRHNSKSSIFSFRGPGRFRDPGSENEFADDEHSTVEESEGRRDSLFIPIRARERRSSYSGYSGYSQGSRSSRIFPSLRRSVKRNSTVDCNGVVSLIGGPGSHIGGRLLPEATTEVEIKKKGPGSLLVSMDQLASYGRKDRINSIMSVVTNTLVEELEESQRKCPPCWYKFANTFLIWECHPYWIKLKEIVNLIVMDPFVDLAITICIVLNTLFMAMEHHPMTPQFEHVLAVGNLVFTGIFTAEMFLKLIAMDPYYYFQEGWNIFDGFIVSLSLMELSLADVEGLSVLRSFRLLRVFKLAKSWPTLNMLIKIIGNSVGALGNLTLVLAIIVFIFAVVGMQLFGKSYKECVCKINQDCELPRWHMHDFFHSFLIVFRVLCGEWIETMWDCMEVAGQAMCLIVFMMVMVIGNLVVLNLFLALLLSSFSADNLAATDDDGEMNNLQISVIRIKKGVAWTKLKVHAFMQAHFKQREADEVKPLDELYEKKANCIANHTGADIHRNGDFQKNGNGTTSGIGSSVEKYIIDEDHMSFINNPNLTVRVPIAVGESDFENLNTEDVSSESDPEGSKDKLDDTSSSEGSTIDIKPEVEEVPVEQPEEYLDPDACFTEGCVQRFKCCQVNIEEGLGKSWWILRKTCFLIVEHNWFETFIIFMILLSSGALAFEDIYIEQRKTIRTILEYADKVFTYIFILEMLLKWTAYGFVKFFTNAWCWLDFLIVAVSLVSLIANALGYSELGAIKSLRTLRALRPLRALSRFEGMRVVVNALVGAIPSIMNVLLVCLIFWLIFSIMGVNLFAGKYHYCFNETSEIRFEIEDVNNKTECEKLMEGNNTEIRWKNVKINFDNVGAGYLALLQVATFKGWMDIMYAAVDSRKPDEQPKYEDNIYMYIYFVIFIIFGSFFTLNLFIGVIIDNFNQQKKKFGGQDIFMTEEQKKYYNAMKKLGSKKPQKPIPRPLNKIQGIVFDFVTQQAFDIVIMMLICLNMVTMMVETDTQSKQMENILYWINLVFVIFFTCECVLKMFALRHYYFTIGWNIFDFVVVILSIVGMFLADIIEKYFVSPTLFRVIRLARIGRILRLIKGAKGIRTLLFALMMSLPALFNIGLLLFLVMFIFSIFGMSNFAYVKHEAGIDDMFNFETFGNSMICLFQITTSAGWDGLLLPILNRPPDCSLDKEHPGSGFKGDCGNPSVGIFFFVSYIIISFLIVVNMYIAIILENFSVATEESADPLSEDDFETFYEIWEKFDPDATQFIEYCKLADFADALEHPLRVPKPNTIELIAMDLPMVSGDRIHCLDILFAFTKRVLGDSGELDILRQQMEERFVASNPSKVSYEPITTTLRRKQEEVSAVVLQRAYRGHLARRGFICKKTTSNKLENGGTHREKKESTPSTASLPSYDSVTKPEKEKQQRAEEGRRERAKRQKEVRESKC
From the text: Evaluation of Compounds as State-Dependent Inhibitors
Use dependent block is an important characteristic for AED activity since it allows increased inhibition of sodium channels during increased neuronal activity as is observed during seizures.

[6] = tested on: Metrazol-induced clonic seizures; assay: scM (subcutaneous Metrazol) test, rats; format: in vivo
Procedure: (§1) Evaluation of Compounds in scM Models of Seizures. Subcutaneous injection of the convulsant Metrazol produces clonic seizures in laboratory animals. […] Animals may be pretreated with various doses of the test compound given by ip injection. At a previously determined TPE (time to peak) of the test compound, the dose of Metrazol which will induce convulsions in 97% of animals (CD97:85 mg/kg mice) may be injected into a loose fold of skin in the midline of the neck. The animals may be placed in isolation cages to minimize stress and observed for the next 30 min for the presence or absence of a seizure. An episode of clonic spasms, approximately 3-5 seconds, of the fore and/or hindlimbs, jaws, or vibrissae may be taken as the endpoint. […] The scM test represents acute animal seizures.

[7] = tested on: Metrazol-induced clonic seizures; assay: scM (subcutaneous Metrazol) test, mice; format: in vivo
Procedure: as §1

Nav1.6 = Nav1.6 (Homo sapiens, UniProt Q9UQD0); assay: % block of Nav1.6 at 100 μM and IC50 (NaV1.6); format: cell-based
Chain of Nav1.6 (Q9UQD0 whole entry): as above
Method in brief: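 Nav1.6 block recorded as percent inhibition at 100 μM compound; IC50 also reported.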

Clc1ccc2nc(-c3ccccc3)[nH]c2c1 [MV1066, 6-chloro-2-phenyl-1H-1,3-benzodiazole]
TD50 (in vivo): 383 mg/kg | ED50 ([1]; Rat, time 0.5 hrs, read-out: ED50 from MES test): 25.1 mg/kg | ED50 ([1]; Rattus norvegicus, rats, IP, Table 15, read-out: MES ED50): 25.1 mg/kg | MES N/F (animals active over number tested) ([1]; rats, IP, 0.25 h): 2/4 | MES N/F (animals active over number tested) ([1]; rats, IP, 0.5 h): 4/4 | MES N/F (animals active over number tested) ([1]; rats, IP, 1.0 h): 4/4 | MES N/F (animals active over number tested) ([1]; rats, IP, 2.0 h): 3/4 | MES N/F (animals active over number tested) ([1]; rats, IP, 4.0 h): 4/4 | ED50 ([2]; Mouse, time 0.5 hrs, read-out: ED50 from MES test): 44.2 mg/kg | ED50 ([2]; Mus musculus, mice, IP, Table 14, read-out: MES ED50): 44.2 mg/kg | MES N/F (animals active over number tested) ([2]; mice, IP, 0.25 h): 4/4 | MES N/F (animals active over number tested) ([2]; mice, IP, 0.5 h): 4/4 | MES N/F (animals active over number tested) ([2]; mice, IP, 1.0 h): 4/4 | MES N/F (animals active over number tested) ([2]; mice, IP, 2.0 h): 4/4 | MES N/F (animals active over number tested) ([2]; mice, IP, 4.0 h): 4/4 | TOX N/F (animals toxic over number tested) (rats; 0.25 h): 0/4 | TOX N/F (animals toxic over number tested) (rats; 0.5 h): 0/4 | TOX N/F (animals toxic over number tested) (rats; 1.0 h): 0/4 | TOX N/F (animals toxic over number tested) (rats; 2.0 h): 0/4 | TOX N/F (animals toxic over number tested) (rats; 4.0 h): 0/4 | TD50 [3]: > 500 mg/kg | TOX N/F (animals toxic over number tested) (mice; 0.5 h): 0/4 | TOX N/F (animals toxic over number tested) (mice; 1 h): 0/4 | TOX N/F (animals toxic over number tested) (mice; 2 h): 0/4 | TOX N/F (animals toxic over number tested) (mice; 4 h): 0/4 | 6 Hz N/F (animals active over number tested) ([4]; IP, 32 mA, 0.25 h): 4/4 | 6 Hz N/F (animals active over number tested) ([4]; IP, 32 mA, 0.5 h): 4/4 | 6 Hz N/F (animals active over number tested) ([4]; IP, 32 mA, 1.0 h): 3/4 | 6 Hz N/F (animals active over number tested) ([4]; IP, 32 mA, 2.0 h): 2/4 | 6 Hz N/F (animals active over number tested) ([4]; IP, 32 mA, 4.0 h): 0/4 | 6 Hz N/F (animals active over number tested) ([4]; IP, 44 mA, 0.25 h): 2/4 | 6 Hz N/F (animals active over number tested) ([4]; IP, 44 mA, 0.5 h): 2/4 | 6 Hz N/F (animals active over number tested) ([4]; IP, 44 mA, 1.0 h): 2/4 | 6 Hz N/F (animals active over number tested) ([4]; IP, 44 mA, 2.0 h): 0/4 | 6 Hz N/F (animals active over number tested) ([4]; IP, 44 mA, 4.0 h): 0/4 | ED50 ([4]; 32 mA, read-out: ED50 (6 Hz test)): 67.1 mg/kg | ED50 ([4]; IP, 32 mA, Table 14, read-out: 6 Hz (32 mA) ED50): 67.1 mg/kg | ED50 ([4]; IP, (14 mA) [sic], Table 14, read-out: 6 Hz (14 mA) ED50): 72.4 mg/kg | Avg. Score ([5]; 35 mg/kg): 4.75 | N/F (animals active over number tested) ([5]; 35 mg/kg): 1/8 | Avg. Score ([5]; 72 mg/kg): 3.125 | N/F (animals active over number tested) ([5]; 72 mg/kg): 5/8 | Avg. Score ([5]; 90 mg/kg): 2.75 | N/F (animals active over number tested) ([5]; 90 mg/kg): 5/8 | Avg. Score ([5]; 120 mg/kg): 0.375 | N/F (animals active over number tested) ([5]; 120 mg/kg): 8/8 | ED50 ([5]; Mus musculus): 64.1 mg/kg | effect on current amplitude and activation gating (NaV1.6 sodium channels; 100 μM, 1 second pre-pulse): inhibits macroscopic current amplitude but has no effect on activation gating | use-dependent block (NaV1.6 sodium channels; 20 Hz): profound use-dependent block | affinity by holding potential (dose response) (NaV1.6 sodium channels; cells held at −100 mV or −60 mV, stepped to +10 mV): greater affinity for cells held at −60 mV | ED50 ([6]; Rattus norvegicus, rats, IP, Table 15, read-out: sCM ED50): 96.9 mg/kg | ED50 ([6]; sc, Rat, time 0.5 hrs, read-out: ED50 from scM test): 97 mg/kg | ED50 ([7]; Mus musculus, mice, IP, Table 14, read-out: sCM ED50): 180 mg/kg | ED50 ([7]; sc, Mouse, time 0.5 hrs, read-out: ED50 from scM test): 181 mg/kg | inhibition at 100 µM (Nav1.6; 100 μM compound): 95% | IC50 (Nav1.6; NaV1.6, Table 2, MV1060-MV1091, unit inferred, read-out: IC50): 34.6 µM
